Measurements published in patent US20240252596A1, “Injectable Polymeric Biopharmaceutical Formulations” (The Board of Trustees of the Leland Stanford Junior …, priority 2023, published 2024).

Tests used:
[1] = Syringe force measurements of liquid carriers alone after 48 h; format: physicochemical; settings: media alone in syringe, after 48 h at ambient temperature
Description: To investigate the syringe force profile for various liquid carriers in syringes (e.g., break loose (initiating) force, and the glide (sustaining) force), the following media alone were loaded into syringes in duplicate (n=2): • 1. triacetin (100%) • 2. benzyl benzoate (100%) • 3. Miglyol 810 (100%) • 4. Miglyol 840 (100%) • 5. benzyl alcohol (100%) • 6. ethyl oleate (100%).
The above syringes were stored for 48 h at ambient temperature, protected from light.
Syringe force measurements (n=2) were conducted on each media after 48 h.

[2] = as above; format: physicochemical; settings: vehicle
[3] = Parameters of liquid carriers (density, viscosity, vapor pressure); settings: liquid carrier
Description: (§1) To investigate the liquid carrier component of the subject compositions, a number of solvents were tested for their suspension performance characteristics.

[4] = Liquid carrier studies: suspension performance of BSA/MoNi (5%) microparticles at 460 mg/mL; settings: for Suspension Performance: BSA/MoNi (5%) microparticles dispersed at 460 mg/mL in the media; for Additional comments (consistency on dispersion, stability of suspension): BSA/MoNi (5%) microparticles dispersed in the media; for time until suspension hardens: sealed in a glass container with parafilm
Description: as §1

SKH1-E mice = assay: Tolerability screen: subcutaneous injection of solvent or solvent blend, adverse skin reaction; format: in vivo; settings: 10 uL s.c.
Description: SKH1-E mice were subcutaneously administered 10 μL of solvent or solvent blend with triacetin (no protein). […] Volume of solvent injected was 2× the solvent volume that would be administered to a mouse in a paste.
Degree of adverse skin reaction was quantified using the grading scale of Table 5: […]

Structure (SMILES) | Break loose (N), n = 2 [1] [N] | Glide force (N), n = 2 [1] [N] | Viscosity (cp)* [2] | Density [3] [g/mL] | Vapor pressure [3] [Pa] | Viscosity (@25 C.) [3] | Suspension Performance [4] | Additional comments (consistency on dispersion, stability of suspension) [4] | time until suspension hardens [4] | skin reaction (SKH1-E mice)
OCc1ccccc1 [Benzyl Alcohol (BA), Benzyl Alcohol] | 4.8 | 2.5 | 5 cp | 1.04 | 12 | 5.4 | + | Forms very low viscosity |  | 
O=C(OCc1ccccc1)c1ccccc1 [Benzyl benzoate] | 5.7 | 3.5 | 8-9 cp | 1.11 |  | 8.29 | + | Forms a low viscosity solution |  | 
C[S+](C)[O-] [Dimethyl sulfoxide (DMSO), Dimethyl sulfoxide] |  |  |  | 1.09 | 80 | 2.0 |  | quickly hardens into a flaky | paste (within 1 hour when sealed | 
CCO [Ethyl alcohol] |  |  |  | 0.79 |  | 1.07 |  | Clumps immediately, cannot |  | 
CN1CCCC1=O [N-methyl-2-pyrrolidone (NMP), N-methyl-2-pyrrolidone] |  |  |  | 1.03 | 45 | 1.89 | +/− | Forms very low viscosity |  | 
CC(O)CO (stereo not drawn) [Propylene glycol (PG), Propylene glycol] |  |  |  | 1.03 | 11 | 48.6 |  | quickly hardens into a sticky | rock (within a couple hours | 
CC(=O)OCC(COC(C)=O)OC(C)=O [Triacetin] | 8.1 | 6.1 | 23 cp | 1.16 | 0.267 | 23 | ++ | A very good non-solvent. Shows |  | no skin swelling or redness
CCCCCCCC/C=C\CCCCCCCC(=O)OCC [ethyl oleate] | 4.2 | 3.2 | 6 cp |  |  |  |  |  |  | 
